Laboratory results published in patent US20080262097A1, “Formulations” (priority 2005, published 2008).
Converted amounts (≈) assume the structure as drawn. Read-outs that look alike come from different tables or passages of the source.

Columns and labels:
S. aureus ATCC 29213 [1] = assay: Supplemented disc diffusion assay (DDA + salt, lipid or blood); assay type: cell-based, Staphylococcus aureus; details: 200 μg per disc (thymoquinone 50 μg); for DDA + blood: agar supplemented with blood; for DDA + lipid: agar supplemented with lipid; for DDA + salt: agar supplemented with salt
Method: The staphylococci and enterococci were cultured and maintained on Mueller-Hinton Medium (agar and broth) at pH 7.2; they were incubated aerobically at 37° C. for 24 hours. A sterile paper disc was impregnated with a sample of the test compound and a minimum of 30 minutes allowed for the solvents to evaporate as far as possible. The disc was then placed on an agar plate onto which the test micro-organism had been inoculated. The plate was then incubated under the conditions described above, following which it was examined visually for signs of bacterial growth. If the test compound had antimicrobial activity, a circular zone of no growth would be obtained around the disc. The diameter of this zone of “inhibition” was measured using a ProtoCOL™ automated zone sizer (Synbiosis, Cambridge, UK). In general, a greater diameter and/or area of the zone of inhibition indicates a greater antimicrobial activity in the relevant test compound, although other factors such as test compound mobility through the agar gel may also influence the result. Either the DDA or the SDDA tests may be carried out using an agar gel supplemented with blood, lipid and/or salt to simulate some of the major components present in human skin and to assess whether these substances might reduce the antimicrobial activity observed for the test compounds. Performance under these conditions can provide a more reliable indication of activity on topical application. […] MIC, MBC and DDA assays, as described above, were carried out using the test compound benzoyl peroxide (BP) and a range of different benzoquinones and hydroquinones. Supplemented DDA assays, in the presence of salt, lipid and blood, were also conducted. […] The exceptions were the thymoquinone assays, in which only 50 μg of the benzoquinone was used.

P. acnes NCTC 737 [2] = assay: Disc diffusion assay (DDA); assay type: cell-based, Propionibacterium acnes; details: 200 μg per disc
Method: 2. Propionibacterium spp.—the principal propionibacterial strain used in these studies was Propionibacterium acnes NCTC 737.
(§1) The Propionibacterium spp organisms were cultured and maintained on Wilkins-Chalgren Anaerobe Medium (agar and broth) at pH 6.0; cultures were incubated anaerobically at 37° C. for 72 hours.
A sterile paper disc was impregnated with a sample of the test compound and a minimum of 30 minutes allowed for the solvents to evaporate as far as possible. The disc was then placed on an agar plate onto which the test micro-organism had been inoculated. The plate was then incubated under the conditions described above, following which it was examined visually for signs of bacterial growth. […] The diameter of this zone of “inhibition” was measured using a ProtoCOL™ automated zone sizer (Synbiosis, Cambridge, UK).
(§2) The area of the zone of inhibition was calculated from the measured zone diameter (D) using the formula π(D/2)^2.
For all (S)DDA assays, 200 μg of each compound was loaded onto each disc.

S. aureus ATCC 29213 [3] = assay: MBC assay; assay type: cell-based, Staphylococcus aureus
Method: 1. Staphylococcus aureus—the principal staphylococcal test micro-organism used in these studies was Staphylococcus aureus ATCC 29213. This strain is the one recommended for QC/QA purposes in Minimum Inhibitory Concentration (MIC) assays by the US Clinical and Laboratory Standards Institute (formerly the NCCLS), an FDA-recognised body. […] The staphylococci and enterococci were cultured and maintained on Mueller-Hinton Medium (agar and broth) at pH 7.2; they were incubated aerobically at 37° C. for 24 hours. This assay, normally carried out after an MIC assay, determines the minimum concentration of a compound that is lethal to the micro-organism being tested. […] These samples were then individually sub-cultured on non-selective agar medium, under the incubation conditions described above. Following incubation they were examined visually for bacterial growth.

P. acnes NCTC 737 [4] = assay: MIC assay; assay type: cell-based, Propionibacterium acnes
Method: (§3) 2. Propionibacterium spp.—the principal propionibacterial strain used in these studies was Propionibacterium acnes NCTC 737. This is the type strain of the genus; it is fully susceptible to antibiotics.
as §1
This is a standard international method for quantitatively assessing the antimicrobial activity of a compound in a liquid medium. The method used a 96-well microtitre plate, capable of holding about 200 μl of liquid per well. […] The culture media were as described above for the relevant test organisms.
The wells were inoculated with a liquid suspension of freshly grown micro-organism and incubated under the conditions described above. After incubation, the microtitre plate was examined visually (with the aid of a light box) for cell pellets in and/or opaque wells, which would indicate microbial growth. The MIC value was recorded as the lowest concentration of test compound required to inhibit microbial growth, ie, the lowest concentration for which the liquid in the well remained clear.
The assays were conducted in duplicate and included both negative (culture medium only) and positive (culture medium, diluting solvent and inoculum) controls.

P. acnes NCTC 737 [5] = assay: MBC assay; assay type: cell-based, Propionibacterium acnes
Method: as §3, §1
This assay, normally carried out after an MIC assay, determines the minimum concentration of a compound that is lethal to the micro-organism being tested.
These samples were then individually sub-cultured on non-selective agar medium, under the incubation conditions described above. Following incubation they were examined visually for bacterial growth.

S. aureus ATCC 12601 = assay: Disc diffusion assay (DDA); assay type: cell-based, Staphylococcus aureus; details: zone diameter, 200 μg per disc
Method: (§4) The staphylococci and enterococci were cultured and maintained on Mueller-Hinton Medium (agar and broth) at pH 7.2; they were incubated aerobically at 37° C. for 24 hours.
(§5) A sterile paper disc was impregnated with a sample of the test compound and a minimum of 30 minutes allowed for the solvents to evaporate as far as possible. The disc was then placed on an agar plate onto which the test micro-organism had been inoculated. The plate was then incubated under the conditions described above, following which it was examined visually for signs of bacterial growth. If the test compound had antimicrobial activity, a circular zone of no growth would be obtained around the disc. The diameter of this zone of “inhibition” was measured using a ProtoCOL™ automated zone sizer (Synbiosis, Cambridge, UK). In general, a greater diameter and/or area of the zone of inhibition indicates a greater antimicrobial activity in the relevant test compound, although other factors such as test compound mobility through the agar gel may also influence the result.
as §2

S. aureus CPHL VISA Mu50 = assay: Disc diffusion assay (DDA); assay type: cell-based, Staphylococcus aureus; details: zone diameter, 200 μg per disc
Method: as §4, §5, §2

S. aureus ATCC 12606 = assay: Disc diffusion assay (DDA); assay type: cell-based, Staphylococcus aureus; details: zone diameter, 200 μg per disc
Method: as §4, §5, §2

S. aureus CPHL VISA Mu3 = assay: Disc diffusion assay (DDA); assay type: cell-based, Staphylococcus aureus; details: zone diameter, 200 μg per disc
Method: as §4, §5, §2

S. aureus ATCC 25923 = assay: Disc diffusion assay (DDA); assay type: cell-based, Staphylococcus aureus; details: zone diameter, 200 μg per disc
Method: as §4, §5, §2

S. aureus CPHL EMRSA 17 = assay: Disc diffusion assay (DDA); assay type: cell-based, Staphylococcus aureus; details: zone diameter, 200 μg per disc
Method: as §4, §5, §2

[6] = S. aureus ATCC 29213, Table 1 (Example 1)
[7] = P. acnes NCTC 737, Table 7 (Example 6)
[8] = Table 10 (Example 8), zone diameter
[9] = Cutibacterium acnes, NCTC737, P. acnes NCTC 737 (resistance None), Table 9 (Example 8)
[10] = Cutibacterium acnes, NCTC737, P. acnes NCTC 737, Table 7 (Example 6)
[11] = Staphylococcus aureus, ATCC29213, S. aureus ATCC 29213, Table 1 (Example 1), read-out: MBC
[12] = Cutibacterium acnes, NCTC737, P. acnes NCTC 737, Table 7 (Example 6), read-out: MIC
[13] = Cutibacterium acnes, NCTC737, P. acnes NCTC 737, Table 7 (Example 6), read-out: MBC

Structure (SMILES): Cc1c(O)ccc(O)c1C [2,3-dimethyl-p-hydroquinone]
- DDA + blood (S. aureus ATCC 29213 [1]): 14.32 mm
- DDA + lipid (S. aureus ATCC 29213 [1]): 35.80 mm
- DDA + salt (S. aureus ATCC 29213 [1]): 34.24 mm
- DDA (P. acnes NCTC 737 [2]; Table 7, zone diameter): 18.75 mm
- MBC (S. aureus ATCC 29213 [3]; [6]): 7.8 µg/mL (≈ 56.5 µM)
- MIC (P. acnes NCTC 737 [4]; [7]): 7.8 µg/mL (≈ 56.5 µM)
- MBC (P. acnes NCTC 737 [5]; [7]): 15.6 µg/mL (≈ 113 µM)

Structure (SMILES): CCc1cc(O)ccc1O [2-ethyl-p-hydroquinone]
- DDA + blood (S. aureus ATCC 29213 [1]): 17.74 mm
- DDA + lipid (S. aureus ATCC 29213 [1]): 23.04 mm
- DDA + salt (S. aureus ATCC 29213 [1]): 24.59 mm
- DDA (P. acnes NCTC 737 [2]; Table 7, zone diameter): 9.90 mm
- MBC (S. aureus ATCC 29213 [3]; [6]): 15.6 µg/mL (≈ 113 µM)
- MIC (P. acnes NCTC 737 [4]; [7]): 7.8 µg/mL (≈ 56.5 µM)
- MBC (P. acnes NCTC 737 [5]; [7]): 31.25 µg/mL (≈ 226 µM)

Structure (SMILES): CC(C)(C)c1cc(O)ccc1O [TBHQ, t-butyl hydroquinone]
- DDA + blood (S. aureus ATCC 29213 [1]): 10.89 mm
- DDA + lipid (S. aureus ATCC 29213 [1]): 31.44 mm
- DDA + salt (S. aureus ATCC 29213 [1]): 54.16 mm
- DDA (P. acnes NCTC 737 [2]; Table 7, zone diameter): 9.95 mm
- DDA (P. acnes NCTC 737 [2]; [8]): 8.65 (±0.31) mm
- DDA (P. acnes NCTC 737 [2]; Table 11 (Example 9), mean of three replicates): 15.0 mm
- MBC (S. aureus ATCC 29213 [3]; Staphylococcus aureus, ATCC29213, S. aureus ATCC 29213, Table 5 (Example 5)): 15.6 µg/mL (≈ 93.9 µM)
- MBC (S. aureus ATCC 29213 [3]; Staphylococcus aureus, ATCC29213, S. aureus ATCC 29213, Table 1 (Example 1)): 7.8 µg/mL (≈ 46.9 µM)
- MIC (P. acnes NCTC 737 [4]; [9]): 7.8 µg/mL (≈ 46.9 µM)
- MIC (P. acnes NCTC 737 [4]; [10]): 7.8 µg/mL (≈ 46.9 µM)
- MBC (P. acnes NCTC 737 [5]; [9]): 15.6 µg/mL (≈ 93.9 µM)
- MBC (P. acnes NCTC 737 [5]; [10]): 15.6 µg/mL (≈ 93.9 µM)
- DDA (S. aureus ATCC 12601): 57.34 mm
- DDA (S. aureus CPHL VISA Mu50): 50.11 mm
- DDA (S. aureus ATCC 12606): 53.34 mm
- DDA (S. aureus CPHL VISA Mu3): 50.73 mm
- DDA (S. aureus ATCC 25923): 44.70 mm
- DDA (S. aureus CPHL EMRSA 17): 51.05 mm

Structure (SMILES): O=C(OOC(=O)c1ccccc1)c1ccccc1 [benzoyl peroxide]
- DDA (P. acnes NCTC 737 [2]; Table 7, zone diameter): 24.25 mm
- DDA (P. acnes NCTC 737 [2]; [8]): 19.25 (±0.18) mm
- MBC (S. aureus ATCC 29213 [3]; S. aureus ATCC 29213, Table 5 (Example 5)): 250 µg/mL (≈ 1030 µM)
- MBC (S. aureus ATCC 29213 [3]; [11]): 250 µg/mL (≈ 1030 µM)
- MIC (P. acnes NCTC 737 [4]; [9]): 15.6 µg/mL (≈ 64.4 µM)
- MIC (P. acnes NCTC 737 [4]; [10]): 31.2 µg/mL (≈ 129 µM)
- MBC (P. acnes NCTC 737 [5]; [9]): 31.2 µg/mL (≈ 129 µM)
- MBC (P. acnes NCTC 737 [5]; [10]): 62.5 µg/mL (≈ 258 µM)
- DDA (S. aureus ATCC 12601): 11.68 mm
- DDA (S. aureus CPHL VISA Mu50): 11.64 mm
- DDA (S. aureus ATCC 12606): 11.68 mm
- DDA (S. aureus CPHL VISA Mu3): 10.90 mm
- DDA (S. aureus ATCC 25923): 10.86 mm
- DDA (S. aureus CPHL EMRSA 17): 11.74 mm

Structure (SMILES): O=C1C=CC(=O)C=C1 [p-benzoquinone]
- DDA + blood (S. aureus ATCC 29213 [1]): 20.31 mm
- DDA + lipid (S. aureus ATCC 29213 [1]): 29.05 mm
- DDA + salt (S. aureus ATCC 29213 [1]): 27.49 mm
- DDA (P. acnes NCTC 737 [2]; Table 7, zone diameter): 24.87 mm
- MIC (P. acnes NCTC 737 [4]; [12]): 62.5 µg/mL (≈ 578 µM)
- MBC (P. acnes NCTC 737 [5]; [13]): 62.5 µg/mL (≈ 578 µM)

Structure (SMILES): Oc1ccc(O)cc1 [p-hydroquinone]
- DDA + blood (S. aureus ATCC 29213 [1]): 14.01 mm
- DDA + lipid (S. aureus ATCC 29213 [1]): 15.56 mm
- DDA + salt (S. aureus ATCC 29213 [1]): 16.61 mm
- DDA (P. acnes NCTC 737 [2]; Table 7, zone diameter): 0.0 mm
- MBC (S. aureus ATCC 29213 [3]; [6]): 62.5 µg/mL (≈ 568 µM)
- MIC (P. acnes NCTC 737 [4]; [7]): >250 µg/mL
- MBC (P. acnes NCTC 737 [5]; [7]): >250 µg/mL

Structure (SMILES): CC1=CC(=O)C(C(C)C)=CC1=O [thymoquinone, 2-iso-propyl-5-methyl-p-benzoquinone]
- DDA + blood (S. aureus ATCC 29213 [1]): 0.0 mm
- DDA + lipid (S. aureus ATCC 29213 [1]): 18.99 mm
- DDA + salt (S. aureus ATCC 29213 [1]): 20.54 mm
- DDA (P. acnes NCTC 737 [2]; Table 7, zone diameter): 27.46 mm
- MBC (S. aureus ATCC 29213 [3]; [11]): 15.6 µg/mL (≈ 95 µM)
- MIC (P. acnes NCTC 737 [4]; [12]): 15.6 µg/mL (≈ 95 µM)
- MBC (P. acnes NCTC 737 [5]; [13]): 31.2 µg/mL (≈ 190 µM)
